The results in this text go back to US20230373989A1, “N-PHENYLAMINOCARBONYL PYRIDINO-, PYRIMIDINO AND BENZO-TROPANES AS MODULATORS OF GPR65” (PATHIOS THERAPEUTICS LIMITED, priority 2020, published 2023).

A value given as a limit tells only on which side of the number the result lay.

The target in one assay is T1, human recombinant GPR65 (Homo sapiens, UniProt Q8IYL9).
T1 construct: host or cells: 1321N1 human astrocytoma cells (1321N1-hrGPR65)
T1 sequence (Q8IYL9 whole entry): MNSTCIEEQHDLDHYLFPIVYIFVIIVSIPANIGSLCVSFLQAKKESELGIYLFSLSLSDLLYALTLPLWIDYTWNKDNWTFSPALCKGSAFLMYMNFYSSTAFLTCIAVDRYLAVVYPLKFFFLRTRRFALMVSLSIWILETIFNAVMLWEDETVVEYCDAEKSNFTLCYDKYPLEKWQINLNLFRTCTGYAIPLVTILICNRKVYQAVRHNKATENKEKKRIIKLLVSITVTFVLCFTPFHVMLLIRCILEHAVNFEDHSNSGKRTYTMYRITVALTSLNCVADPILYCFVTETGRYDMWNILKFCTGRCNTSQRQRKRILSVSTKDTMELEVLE
Description: Human GPR65 cAMP HTRF antagonist assay. The format is cell-based.
Conditions: not given
The method, boiled down: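 1321N1 astrocytoma cells stably expressing GPR65 were preincubated with compound for 30 min at room temperature in KRH pH 7.6 with 1 mM IBMX and 200 μM EDTA. They were then stimulated at assay pH 7.2 for 30 min, with controls at pH 7.9. cAMP was read by HTRF (665/620 nm), normalised to controls and fitted by 4-parameter logistic to give IC50.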
On the technique in general: In TR-FRET formats the signal depends on donor and acceptor labels being close together.
As usually defined, the IC50 is the concentration needed to halve the response being measured. Consider `O=C(Nc1cccc(C(F)(F)F)c1)N1C2CCC1c1ccnc(F)c1C2` (racemic) [Compound 156, (±)-1-Fluoro-N-(3-(trifluoromethyl)phenyl)-6,7,8,9-tetrahydro-5H-5,8-epiminocyclohepta[c]pyridine-10-carboxamide], for which the IC50 was less than 500 nM. The same measure, in the same setting: in the case of `O=C(Nc1ccc(OC(F)(F)F)cc1)N1C2CCC1c1ccnc(F)c1C2` (racemic) [Compound 157, (±)-1-Fluoro-N-(4-(trifluoromethoxy)phenyl)-6,7,8,9-tetrahydro-5H-5,8-epiminocyclohepta[c]pyridin-10-carboxamide] it was less than 500 nM; in that of `O=C(Nc1ccc(-c2ccccc2)cc1)N1C2CCC1c1ccnc(F)c1C2` (racemic) [Compound 158, (±)-N-([1,1′-Biphenyl]-4-yl)-1-fluoro-6,7,8,9-tetrahydro-5H-5,8-epiminocyclohepta[c]pyridine-10-carboxamide], less than 500 nM.

`Cc1ccc(NC(=O)N2C3CCC2c2ccnc(F)c2C3)cc1C(F)(F)F` (racemic) [Compound 160, (±)-1-Fluoro-N-(4-methyl-3-(trifluoromethyl)phenyl)-6,7,8,9-tetrahydro-5H-5,8-epiminocyclohepta[c]pyridine-10-carboxamide]: the IC50 was less than 500 nM. Still for that read-out and setting: under `N#Cc1ccc(NC(=O)N2C3CCC2c2ccnc(F)c2C3)cc1C(F)(F)F` (racemic) [Compound 163, (±)-N-(4-Cyano-3-(trifluoromethyl)phenyl)-1-fluoro-6,7,8,9-tetrahydro-5H-5,8-epiminocyclohepta[c]pyridine-10-carboxamide] stands less than 500 nM; under `O=C(Nc1cc(Cl)cc(C(F)(F)F)c1)N1C2CCC1c1ccnc(F)c1C2` (racemic) [Compound 164, (±)-N-(3-Chloro-5-(trifluoromethyl)phenyl)-1-fluoro-6,7,8,9-tetrahydro-5H-5,8-epiminocyclohepta[c]pyridine-10-carboxamide], less than 500 nM; under `O=C(Nc1cc(Cl)c(Cl)c(Cl)c1)N1C2CCC1c1ccnc(F)c1C2` (racemic) [Compound 166, (±)-1-Fluoro-N-(3,4,5-trichlorophenyl)-6,7,8,9-tetrahydro-5H-5,8-epiminocyclohepta[c]pyridine-10-carboxamide], less than 500 nM. Same read-out and setting: in the case of `Cc1cc(NC(=O)N2C3CCC2c2ccnc(F)c2C3)ccc1C(F)(F)F` (racemic) [Compound 167, (±)-1-Fluoro-N-(3-methyl-4-(trifluoromethyl)phenyl)-6,7,8,9-tetrahydro-5H-5,8-epiminocyclohepta[c]pyridine-10-carboxamide] it was less than 500 nM; in that of `O=C(Nc1ccc(Br)cc1)N1C2CCC1c1ccnc(F)c1C2` (racemic) [Compound 168, (±)-N-(4-Bromophenyl)-1-fluoro-6,7,8,9-tetrahydro-5H-5,8-epiminocyclohepta[c]pyridine-10-carboxamide], less than 500 nM. Same read-out and setting: under `O=C(Nc1cccc(Br)c1)N1C2CCC1c1ccnc(F)c1C2` (racemic) [Compound 170, (±)-N-(3-Bromophenyl)-1-fluoro-6,7,8,9-tetrahydro-5H-5,8-epiminocyclohepta[c]pyridine-10-carboxamide] stands less than 500 nM; under `O=C(Nc1cccc(OC(F)(F)F)c1)N1C2CCC1c1ccnc(F)c1C2` (racemic) [Compound 171, (±)-1-Fluoro-N-(3-(trifluoromethoxy)phenyl)-6,7,8,9-tetrahydro-5H-5,8-epiminocyclohepta[c]pyridine-10-carboxamide], less than 500 nM. In the case of `O=C(Nc1ccc(F)c(Br)c1)N1C2CCC1c1ccnc(F)c1C2` (racemic) [Compound 172, (±)-N-(3-Bromo-4-fluorophenyl)-1-fluoro-6,7,8,9-tetrahydro-5H-5,8-epiminocyclohepta[c]pyridine-10-carboxamide], the IC50 was less than 500 nM. Turning to `O=C(Nc1cc(Cl)ccc1F)N1C2CCC1c1ccnc(F)c1C2` (racemic) [Compound 174, (±)-N-(5-Chloro-2-fluorophenyl)-1-fluoro-6,7,8,9-tetrahydro-5H-5,8-epiminocyclohepta[c]pyridine-10-carboxamide], the IC50 is less than 500 nM. Same read-out and setting: in the case of `O=C(Nc1ccc(Cl)cc1F)N1C2CCC1c1ccnc(F)c1C2` (racemic) [Compound 177, (±)-N-(4-Chloro-2-fluorophenyl)-1-fluoro-6,7,8,9-tetrahydro-5H-5,8-epiminocyclohepta[c]pyridine-10-carboxamide] it was less than 500 nM; in that of `O=C(Nc1ccc(F)c(Cl)c1)N1C2CCC1c1ccnc(F)c1C2` (racemic) [Compound 178, (±)-N-(3-Chloro-4-fluorophenyl)-1-fluoro-6,7,8,9-tetrahydro-5H-5,8-epiminocyclohepta[c]pyridine-10-carboxamide], less than 500 nM; in that of `O=C(Nc1cc(Cl)c(Cl)cc1F)N1C2CCC1c1ccc(F)nc1C2` (racemic) [Compound 181, (±)-N-(4,5-Dichloro-2-fluorophenyl)-2-fluoro-6,7,8,9-tetrahydro-5H-5,8-epiminocyclohepta[b]pyridine-10-carboxamide], less than 500 nM. For the compound `O=C(Nc1cc(Cl)c(C(F)(F)F)cc1F)N1C2CCC1c1ccc(F)nc1C2` (racemic) [Compound 182, (±)-N-(5-Chloro-2-fluoro-4-(trifluoromethyl)phenyl)-2-fluoro-6,7,8,9-tetrahydro-5H-5,8-epiminocyclohepta[b]pyridine-10-carboxamide], the 50% inhibitory concentration (IC50) is less than 500 nM. Same read-out and setting: in the case of `O=C(Nc1cc(Cl)c(C(F)(F)F)cc1F)N1C2CCC1c1ccc(=O)[nH]c1C2` (racemic) [Compound 189, (±)-N-(5-Chloro-2-fluoro-4-(trifluoromethyl)phenyl)-2-oxo-2,5,6,7,8,9-hexahydro-1H-5,8-epiminocyclohepta[b]pyridine-10-carboxamide] it was less than 500 nM.

Staying with this assay, now noted: 1321N1-hrGPR65 cells, assay pH 7.2, cAMP HTRF; read-out: hGPR65 IC50 (activity class).
As for `O=C(Nc1ccc(F)c(Cl)c1F)N1C2CCC1c1ccnc(F)c1C2` (racemic) [Compound 154, (±)-N-(3-Chloro-2,4-difluorophenyl)-1-fluoro-6,7,8,9-tetrahydro-5H-5,8-epiminocyclohepta[c]pyridine-10-carboxamide], the IC50 lay within 500 to 5000 nM.

As to `O=C(Nc1cccc(F)c1)N1C2CCC1c1ccnc(F)c1C2` (racemic) [Compound 155, (±)-1-Fluoro-N-(3-fluorophenyl)-6,7,8,9-tetrahydro-5H-5,8-epiminocyclohepta[c]pyridine-10-carboxamide], the half-maximal inhibitory concentration (IC50) lay in the range of 500 to 5000 nM. The same measure, in the same setting: in the case of `O=C(Nc1cc(C(F)(F)F)cc(C(F)(F)F)c1)N1C2CCC1c1ccnc(F)c1C2` (racemic) [Compound 159, (±)-N-(3,5-Bis(trifluoromethyl)phenyl)-1-fluoro-6,7,8,9-tetrahydro-5H-5,8-epiminocyclohepta[c]pyridine-10-carboxamide] it was 500 to 5000 nM. Still for that read-out and setting: in the case of `O=C(Nc1cccc(Cl)c1Cl)N1C2CCC1c1ccnc(F)c1C2` (racemic) [Compound 161, (±)-N-(2,3-Dichlorophenyl)-1-fluoro-6,7,8,9-tetrahydro-5H-5,8-epiminocyclohepta[c]pyridine-10-carboxamide] it was 500 to 5000 nM; in that of `O=C(Nc1ccc(F)cc1F)N1C2CCC1c1ccnc(F)c1C2` (racemic) [Compound 162, (±)-N-(2,4-Difluorophenyl)-1-fluoro-6,7,8,9-tetrahydro-5H-5,8-epiminocyclohepta[c]pyridin-10-carboxamide], 500 to 5000 nM; in that of `N#Cc1cc(NC(=O)N2C3CCC2c2ccnc(F)c2C3)ccc1F` (racemic) [Compound 165, (±)-N-(3-Cyano-4-fluorophenyl)-1-fluoro-6,7,8,9-tetrahydro-5H-5,8-epiminocyclohepta[c]pyridine-10-carboxamide], 500 to 5000 nM.

`O=C(Nc1ccc(OC(F)F)cc1)N1C2CCC1c1ccnc(F)c1C2` (racemic) [Compound 169, (±)-N-(4-(Difluoromethoxy)phenyl)-1-fluoro-6,7,8,9-tetrahydro-5H-5,8-epiminocyclohepta[c]pyridine-10-carboxamide]: the IC50 was in the range of 500 to 5000 nM. On to `O=C(Nc1cc(F)cc(F)c1)N1C2CCC1c1ccnc(F)c1C2` (racemic) [Compound 173, (±)-N-(3,5-Difluorophenyl)-1-fluoro-6,7,8,9-tetrahydro-5H-5,8-epiminocyclohepta[c]pyridine-10-carboxamide], for which the half-inhibitory concentration (IC50) lay within 500 to 5000 nM.

In the case of `O=C(Nc1ccc(F)c(F)c1F)N1C2CCC1c1ccnc(F)c1C2` (racemic) [Compound 175, (±)-1-Fluoro-N-(2,3,4-trifluorophenyl)-6,7,8,9-tetrahydro-5H-5,8-epiminocyclohepta[c]pyridin-10-carboxamide], the IC50 lay in the range of 500 to 5000 nM. Still for that read-out and setting: in the case of `N#Cc1ccc(NC(=O)N2C3CCC2c2ccnc(F)c2C3)cc1` (racemic) [Compound 176, (±)-N-(4-Cyanophenyl)-1-fluoro-6,7,8,9-tetrahydro-5H-5,8-epiminocyclohepta[c]pyridine-10-carboxamide] it was 500 to 5000 nM. Take `O=C(Nc1cc(Cl)c(Cl)cc1F)N1C2CCC1c1cnncc1C2` (racemic) [Compound 193, (±)-N-(4,5-Dichloro-2-fluorophenyl)-6,7,8,9-tetrahydro-5H-5,8-epiminocyclohepta[d]pyridazine-10-carboxamide]: the half-inhibitory concentration (IC50) was 500 to 5000 nM.

On to `O=C(Nc1cc(Cl)c(C(F)(F)F)cc1F)N1C2CCC1c1cnncc1C2` (racemic) [Compound 194, (±)-N-(5-Chloro-2-fluoro-4-(trifluoromethyl)phenyl)-6,7,8,9-tetrahydro-5H-5,8-epiminocyclohepta[d]pyridazine-10-carboxamide], for which the IC50 lay in the range of 500 to 5000 nM. The same measure, in the same setting: under `O=C(Nc1cc(Cl)c(C(F)(F)F)cc1F)N1C2CCC1c1c(Cl)nnc(Cl)c1C2` (racemic) [Compound 195, (±)-1,4-Dichloro-N-(5-chloro-2-fluoro-4-(trifluoromethyl)phenyl)-6,7,8,9-tetrahydro-5H-5,8-epiminocyclohepta[d]pyridazine-10-carboxamide] stands 500 to 5000 nM.
